What was measured:
[1] = topical application, hairless mice; reduced in the process to dihydrolipoic acid; cited from earlier work
skin fibroblasts [2] = assay: Collagen synthesis in vitro (radioproline incorporation) in skin fibroblasts; type: cell-based, human; conditions: lipoic acid 0 to 5 μg/ml (FIG. 5), proanthocyanidin vs control (FIG. 6)
Protocol: Rat skin fibroblasts and NIH 3T3 cells were used to measure collagen synthesis in vitro. Cells at a density of 100×10^3 in 24-well-plates were grown with 10% FBS/DMEM (Irvine Scientific, CA) supplemented with different doses of lipoic acid (0-16 μg/ml). Cells were incubated at 37° C. in a 5% CO2 environment for 24 hours. Medium was changed into labeling medium for another 24 hours (50 μCi/ml [^3H]proline, 25 μg/ml ascorbic acid, 25 μg/ml β-aminoproprionitrile (β-APN)). Collagen synthesis from cultured cells was assayed as previously described (B. Han et al. (2003), supra). Briefly, cells and medium were acidified with glacial acetic acid to a final concentration of 0.5 M and pepsin (Worthington) added to a final concentration of 0.5 mg/ml. Plates were shaken overnight at 4° C., collagen precipitated with 4.0 M NaCl and pellets washed with 20% cold ethanol 3 times. Pellets were dissolved with 0.5 M acetic acid and counted with a scintillation counter (Beckman)

rat hepatocytes = conditions: older rats, 2-week dietary supplementation prior to hepatocyte isolation; cited from earlier work
lipid peroxidation = conditions: old rats, diet supplemented with lipoic acid; cited from earlier work
skin fibroblasts [3] = assay: Cell proliferation assay (thymidine incorporation); type: cell-based, human; conditions: vs control; FIG. 6
Protocol: NIH 3T3 fibroblasts were cultured in DMEM containing 10% fetal bovine serum in 24-well plates at a density of 80×10^3. After overnight attachment, medium was changed to a conditioning medium with different dosages of lipoic acid (20 ng-20 μg). DNA content was assayed after 48 hours in culture. Briefly, cells were trypsinized with 0.25% trypsin-EDTA and pelleted by centrifugation. To the cell pellet, 1.5 ml of cold 10 mM EDTA (pH 12.3) was added to solubilize cells. After neutralizing with 1.0 M KH2PO4 (140 μl) and mixing with 0.5 ml of 100 mM NaCl/10 mM Tris (pH 7.0), 10 μl of 66.7 μg/ml Hoechst 33258 (Sigma) was added to give fluorescent readings at emissions of 350 nm and 450 nm. Cell numbers were obtained by comparing the reading to a standard curve of cellular DNA (1×10^4 to 1×10^6 fibroblast). [^3H]Thymidine incorporation into DNA was performed as previously described (B. Han et al., “Proanthocyanidin: A Natural Crosslinking Reagent for Stabilizing Collagen Matrices,” J. Biomed. Mater. Res. 65A: 118-24 (2003)).

| Compound | penetration across the skin barrier [1] | collagen synthesis in vitro (incorporation of radioproline) (skin fibroblasts [2]) | age-associated effects on ascorbic acid metabolism (rat hepatocytes) | levels of malondialdehyde, an indicator of lipid peroxidation (lipid peroxidation) | cellular proliferation (incorporation of thymidine) (skin fibroblasts [3]) |
| --- | --- | --- | --- | --- | --- |
| O=C(O)CCCC[C@@H]1CCSS1 (racemic) [lipoic acid, 1,2-dithiolane-3-pentanoic acid] | effectively penetrate across the skin barrier |  |  |  |  |
| O=C(O)CCCC[C@@H]1CCSS1 (stereo in doubt) [lipoic acid, 1,2-dithiolane-3-pentanoic acid] |  | increased | almost completely reversed | reduced |  |
| proanthocyanidin |  | increased |  |  | increase in cellular proliferation |

Source: patent US7598291B2, “Methods and compositions for enhancing collagen and proteoglycan synthesis in the skin” (priority 2004, dated 2009)
